Assays:
Format in all cases: cell-based, Xanthomonas citri subsp. citri
Xac306 biofilm formation [1] = assay: Biofilm formation on polystyrene surface and in glass tubes at sub-MIC; settings: Xanthomonas citri, read-out: level of biofilm formation, % of control
Procedure: A static biofilm formation assay in 96-well polystyrene plates coupled with CV staining was performed as previously reported with modifications (Li and Wang, 2011). Briefly, a 96-well polystyrene plate (Nunclon surface, Nuncbrand, Denmark) was prepared with 170 μL NB plus 1.0% glucose per well. Aliquots of 20 μL each of the different concentrations of the tested compound were pipetted into eight wells containing 170 μL of NB plus 1.0% glucose. To each of these wells was added 10 μL of the standardized overnight Xac 306 culture (OD600=1.0). Control wells contained NB plus 1.0% glucose and SDW or 0.1% DMSO as a sterility control, or standardized overnight Xac 306 culture as a growth control. […] After incubation, the planktonic growth was measured at OD600. To quantify the amount of biofilms formed on the surfaces of the wells, the culture was removed from the wells. […] The eluted CV was 2-fold diluted in double distilled water and the absorbance at 590 nm was measured. […]
To gain further evidence of the effect of selected compounds on biofilm formation, biofilm formation in glass tubes and on leaf surfaces was examined as described previously (Li and Wang, 2012). […] The stain remaining in cells on glass tubes was dissolved in 95% ethanol and quantified by measuring the optical density at 590 nm. […]

[2] = system: biofilm formation and copper resistance related genes in Xac 306; assay: qRT-PCR differential gene expression; settings: for expression of genes important for biofilm formation (qRT-PCR): IAN 100 μg/mL or D-leucine 10 mM, NB, 48 h, 15 genes, gyrA control; for expression of galU, gumB, gumD, copA and copB in planktonic or biofilm cells: in the presence of CuSO4, data not shown
Procedure: To investigate the mechanisms of D-leucine and IAN inhibiting Xac 306 biofilm formation, qRT-PCR analysis was used to determine differential gene expression for Xac306 cells with and without IAN (100 μg/mL) or D-leucine (10 mM). For this analysis, Xac306 was cultured in NB medium with or without biofilm inhibitor at 28° C. without shaking. Cells were collected after 48 h of incubation by centrifugation at 12,000×g for 5 min at 4° C. and used for RNA extraction. For the analysis of gene expression in Xac 306 planktonic and biofilm cells with sub-MICs CuSO4 concentrations, we followed the same procedure described for evaluation of resistance of Xac biofilm cells to copper in glass tubes. Both biofilm cells attached to the glass tube at the medium-air interface and planktonic cells in culture were used. Cells collected after 48 h of incubation in the presence of CuSO4 were washed by centrifugation at 12,000×g for 5 min at 4° C. with diethylpyrocarbonate treated water. Cells collected from five tubes were combined and served as one biological replicate. The pellet was stored at −80° C. until RNA extraction. Total RNA of Xac306 cells was isolated using RNA protect bacterial reagent (Qiagen, Valencia, Calif.) and RNeasy Mini Kit (Qiagen, Valencia, Calif.), following the manufacturer's instructions. The contaminated genomic DNA was removed using a TURBO DNA-free kit (Ambion, Austin, Tex.). RNA purity and quality were evaluated with a NanoDrop ND-1000 spectrophotometer (NanoDrop Technologies, Wilmington, Del.).
A one-step QRT-PCR was conducted using a 7500 fast real-time PCR system (Applied Biosystems, Foster City, Calif.) with a QuantiTect SYBR green RT-PCR kit (Qiagen, Valencia, Calif.) following the manufacturer's instructions. The gene specific primers (Table 1) were designed based on the genome sequence of Xac strain 306 (da Silver et al., 2002). In the biofilm inhibition mechanism studies, those primers targeted fifteen genes that were previously identified to be related bioflim formation in Xac strain 306 (Li and Wang, 2011). In the copper resistance analysis, those primers targeted the gum genes gumB and gumD polysaccharides—related gene galU, and copper resistance-related genes copA and copB (Teixeira et al., 2008; Behlau et al., 2012). The DNA gyrase subunit A encoding gene gyrA was used as endogenous control. The relative fold change in gene expression was calculated using the formula 2^−ΔΔCT (Livak and Schmittgen, 2001). qRT-PCR was repeated twice with four independent biological replicates each time.

Xac306 biofilm formation [3] = assay: Static biofilm formation assay in 96-well polystyrene plates with crystal violet staining; settings: for dose dependence of Xac306 biofilm decrease: 0 to 20 mM for D-leucine and D-serine, 0 to 150 μg/mL for IAN; for decrease in biofilm mass: 10 mM for D-leucine and 100 μg/mL for IAN (below MIC); for effect on planktonic cell density: sub-MIC: 10 mM D-leucine, 100 μg/mL IAN, data not shown
Procedure: A static biofilm formation assay in 96-well polystyrene plates coupled with CV staining was performed as previously reported with modifications (Li and Wang, 2011). Briefly, a 96-well polystyrene plate (Nunclon surface, Nuncbrand, Denmark) was prepared with 170 μL NB plus 1.0% glucose per well. Aliquots of 20 μL each of the different concentrations of the tested compound were pipetted into eight wells containing 170 μL of NB plus 1.0% glucose. To each of these wells was added 10 μL of the standardized overnight Xac 306 culture (OD600=1.0). Control wells contained NB plus 1.0% glucose and SDW or 0.1% DMSO as a sterility control, or standardized overnight Xac 306 culture as a growth control. The plate was covered by a MicroWell lid (Nunclon), sealed with parafilm to prevent evaporation and incubated at 28° C. for 48 h without shaking. After incubation, the planktonic growth was measured at OD600. To quantify the amount of biofilms formed on the surfaces of the wells, the culture was removed from the wells. After drying, the wells were washed twice with 200 μl of SDW for 5 min, allowed to dry then 200 μl of 0.1% CV added. After 30 minutes, the CV was removed. The wells were washed with excess SDW to remove unbound CV and air dried in an inverted position for 2 h. Afterward, 200 μl of 95% ethanol was added to the wells and incubated for 30 min at room temperature to elute bound CV. The eluted CV was 2-fold diluted in double distilled water and the absorbance at 590 nm was measured. Each data point was averaged from eight replicate wells.

Row | SMILES | activity at 10000 µM (Xac306 biofilm formation [1]) | expression of genes important for biofilm formation (qRT-PCR) [2] | expression of galU, gumB, gumD, copA and copB in planktonic or biofilm cells [2] | dose dependence of Xac306 biofilm decrease (Xac306 biofilm formation [3]) | decrease in biofilm mass (Xac306 biofilm formation [3]) | effect on planktonic cell density (Xac306 biofilm formation [3]) | activity at 100 µg/mL (Xac306 biofilm formation [1]; polystyrene surface and glass tubes, 10 mM D-leucine, 100 μg/mL IAN)
1 | CC(C)C[C@@H](N)C(=O)O [D-leucine] | 50% | no induction or repression of any of the tested genes | did not affect express of any of the gene tested | decreased Xac306 biofilm in a dose-dependent manner | 58% | does not significantly decrease planktonic cell density | –
2 | N#CCc1c[nH]c2ccccc12 [IAN, 3-indolylacetonitrile] | – | repression of chemotaxis and motility genes cheY, motB and pilB | did not affect express of any of the gene tested | decreased Xac306 biofilm in a dose-dependent manner | 65% | does not significantly decrease planktonic cell density | 60%

From patent publication US10111431B2, “Application of biofilm formation inhibiting compounds enhances control of citrus canker” (priority 2013, dated 2018)
